Reference: patent US6979686B1, “Substituted pyrazoles as p38 kinase inhibitors” (Pharmacia Corporation, priority 2001, dated 2005)

What follows are compounds tested against T1, human p38 kinase alpha (Homo sapiens, UniProt Q16539) (assay: p38 kinase in vitro assay, phosphorylation of biotinylated PHAS-I with 32P-ATP). Conditions: @ 1.0 uM.
T1 construct: GST (N, cleaved yes); made in house; host or cells: E. coli DH10B
Assay type: biochemical

T1 sequence (Q16539 whole entry): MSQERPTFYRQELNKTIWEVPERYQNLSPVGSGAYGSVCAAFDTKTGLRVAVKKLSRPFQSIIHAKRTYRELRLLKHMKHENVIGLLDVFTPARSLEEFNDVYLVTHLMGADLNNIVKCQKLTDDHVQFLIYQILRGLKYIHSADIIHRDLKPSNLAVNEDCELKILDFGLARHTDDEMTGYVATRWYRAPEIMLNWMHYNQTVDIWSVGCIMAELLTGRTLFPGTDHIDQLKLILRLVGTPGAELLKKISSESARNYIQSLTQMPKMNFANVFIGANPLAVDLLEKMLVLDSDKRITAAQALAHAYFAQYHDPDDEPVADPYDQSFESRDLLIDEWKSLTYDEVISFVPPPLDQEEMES

| P38 alpha kinase % inhib @ conc. [% @] | P38 alpha kinase % inhib @ conc. (uM) [% @] | Compound |
| --- | --- | --- |
| 90.0 |  | CCCOC(=O)NCCCc1[nH]nc(-c2ccc(F)cc2)c1-c1ccncc1 [Example B-1230] |
|  | 67.0 | CCNC(=O)NCCc1[nH]nc(-c2ccc(F)cc2)c1-c1ccncc1 [Example B-1049] |
|  | 96.0 | O=C(NCCc1ccccc1)NCCc1[nH]nc(-c2ccc(F)cc2)c1-c1ccncc1 [Example B-0945] |
|  | 69.0 | CCOC(=O)CCNC(=O)NCCc1[nH]nc(-c2ccc(F)cc2)c1-c1ccncc1 [Example B-0947] |
|  | 66.0 | O=C(NCCc1[nH]nc(-c2ccc(F)cc2)c1-c1ccncc1)Nc1ccc(F)cc1 [Example B-1034] |
|  | 76.0 | O=C(NCCc1[nH]nc(-c2ccc(F)cc2)c1-c1ccncc1)N1CCCC1 [Example B-1032] |
| 88.0 |  | O=C(NCCCc1[nH]nc(-c2ccc(F)cc2)c1-c1ccncc1)Nc1ccc(F)cc1 [Example B-1211] |
|  | 78.0 | O=C(NCCCc1[nH]nc(-c2ccc(F)cc2)c1-c1ccncc1)c1ccccc1 [Example B-1180] |
|  | 76.0 | CC(C)COC(=O)NCCCc1[nH]nc(-c2ccc(F)cc2)c1-c1ccncc1 [Example B-1187] |
|  | 80.0 | CC(Oc1ccccc1)C(=O)NCCc1[nH]nc(-c2ccc(F)cc2)c1-c1ccncc1 (centres unmarked) [Example B-1009] |
|  | 72.0 | O=C(NCCc1[nH]nc(-c2ccc(F)cc2)c1-c1ccncc1)Nc1cccc(F)c1 [Example B-1046] |
|  | 83.0 | CC(Oc1ccccc1)C(=O)NCCCc1[nH]nc(-c2ccc(F)cc2)c1-c1ccncc1 (centres unmarked) [Example B-1186] |
| 77.0 |  | O=S(=O)(NCc1[nH]nc(-c2ccc(F)cc2)c1-c1ccncc1)c1cc(Br)c(Br)s1 [Example B-0136] |
| 90.0 |  | CN(C)C(=O)NCCCc1[nH]nc(-c2ccc(F)cc2)c1-c1ccncc1 [Example B-1212] |
| 88.0 |  | CCCNC(=O)NCCCc1[nH]nc(-c2ccc(F)cc2)c1-c1ccncc1 [Example B-1218] |
|  | 64.0 | O=C(NCCc1[nH]nc(-c2ccc(F)cc2)c1-c1ccncc1)Nc1ccccc1 [Example B-1043] |

Same assay, conditions: @ 1.0 uM; read-out: P38 alpha kinase % inhib @ conc.

| inhibition at 1 µM [%] | Compound |
| --- | --- |
| 80 | CC(=O)OCC(=O)NCc1[nH]nc(-c2ccc(F)cc2)c1-c1ccncc1 [Example B-0004] |

Same assay, conditions: @ 10.0 uM

| P38 alpha kinase % inhib @ conc. [% @] | P38 alpha kinase IC50, uM or % inhib @ conc. (uM): % inhib [% @] | Compound |
| --- | --- | --- |
| 70.0 |  | Cc1c(-c2ccncc2)c(-c2ccc(F)cc2)nn1CC(=O)N1CCOCC1 [Example B-2366] |
|  | 86.0 | Cc1c(-c2ccncc2)c(-c2ccc(F)cc2)nn1CC(=O)Nc1ccccc1Oc1ccc(Cl)cc1 [Example B-2449] |
|  | 82.0 | CSc1ccccc1NC(=O)Cn1nc(-c2ccc(F)cc2)c(-c2ccncc2)c1C [Example B-2428] |
| 63.0 |  | Cc1c(-c2ccncc2)c(-c2ccc(F)cc2)nn1CC(=O)N1CCSC1 [Example B-2383] |
|  | 75.0 | Cc1c(-c2ccncc2)c(-c2ccc(F)cc2)nn1CC(=O)N1CCC(N(C)C(=O)OC(C)(C)C)C1 (centres unmarked) [Example B-2413] |
| 48.0 |  | Cc1c(-c2ccncc2)c(-c2ccc(F)cc2)nn1CC(=O)N(Cc1ccco1)CC(C)C [Example B-2378] |
|  | 86.0 | Cc1c(-c2ccncc2)c(-c2ccc(F)cc2)nn1CC(=O)Nc1ccccc1C(F)(F)F [Example B-2419] |
| 47.0 |  | COC(=O)[C@H](CC(C)C)NC(=O)Cn1nc(-c2ccc(F)cc2)c(-c2ccncc2)c1C [Example B-2364] |
|  | 78.0 | Cc1c(-c2ccncc2)c(-c2ccc(F)cc2)nn1CC(=O)N1CCCCC1 [Example B-2401] |
| 35.0 |  | COCCN(C)C(=O)Cn1nc(-c2ccc(F)cc2)c(-c2ccncc2)c1C [Example B-2374] |

Same assay, conditions: Table 8; 1% DMSO; read-out: p38α Kinase Assay IC50

| IC50 [nM] | Compound |
| --- | --- |
| 1340 | O=C(O)c1n[nH]c(-c2ccc(F)cc2)c1-c1ccncc1 [A-313, Step 1, 5-(4-fluorophenyl)-4-(4pyridinyl)-1H-pyrazole-3-carboxylic acid, monohydrate] |

Same assay, conditions: activated human p38 kinase alpha, PHAS-I substrate, 50 μM unlabeled ATP; read-out: p38 kinase IC50

| IC50 [nM] | Compound |
| --- | --- |
| 300 | Cc1[nH]nc(-c2cccc(C(F)(F)F)c2)c1-c1ccncc1 [Example A-42] |

Same assay, conditions: in vitro P38-alpha kinase inhibition; read-out: P38 alpha kinase IC50

| IC50 [nM] | Compound |
| --- | --- |
| 7 | CC(NS(=O)(=O)c1ccc(C#N)cc1)c1[nH]nc(-c2ccc(F)cc2)c1-c1ccncc1 (centres unmarked) [Example B-0656] |
| 1330 | O=C(NC(Cc1ccccc1)c1[nH]nc(-c2ccc(F)cc2)c1-c1ccncc1)c1ccncc1 (centres unmarked) [Example B-0822] |
| < 100 | CC(NS(=O)(=O)c1cccc(Br)c1)c1[nH]nc(-c2ccc(F)cc2)c1-c1ccncc1 (centres unmarked) [Example B-0632] |
| 1230 | CC(NC(=O)c1ccc(F)cc1)c1[nH]nc(-c2ccc(F)cc2)c1-c1ccncc1 (centres unmarked) [Example B-0533] |
| 180 | CC(NC(=O)C1CCCN1)c1[nH]nc(-c2ccc(F)cc2)c1-c1ccncc1 (centres unmarked) [Example B-0605] |
| 1220 | CC(NS(=O)(=O)C(F)(F)F)c1[nH]nc(-c2ccc(F)cc2)c1-c1ccncc1 (centres unmarked) [Example B-0568] |
| 26 | O=S(=O)(NCCc1[nH]nc(-c2ccc(F)cc2)c1-c1ccncc1)c1ccc(Cl)s1 [Example B-1101] |
| 830 | CCN(CC)C(=O)N[C@H](C)c1[nH]nc(-c2ccc(F)cc2)c1-c1ccncc1 [Example B-0420] |
| 1600 | CC(C)OC(=O)NC(Cc1ccccc1)c1[nH]nc(-c2ccc(F)cc2)c1-c1ccncc1 (centres unmarked) [Example B-0751] |
| 430 | O=C(NCCc1[nH]nc(-c2ccc(F)cc2)c1-c1ccncc1)c1cc(F)ccc1F [Example B-1148] |
| 20000 | COc1ccc(NC(=O)NC(C)c2[nH]nc(-c3ccc(F)cc3)c2-c2ccncc2)cc1 (centres unmarked) [Example B-0596] |
| 88 | CC(NS(=O)(=O)c1ccc(-c2ccccn2)s1)c1[nH]nc(-c2ccc(F)cc2)c1-c1ccncc1 (centres unmarked) [Example B-0660] |
| 270 | Cc1ccc(S(C)(=O)=O)cc1S(=O)(=O)NC(C)c1[nH]nc(-c2ccc(F)cc2)c1-c1ccncc1 (centres unmarked) [Example B-0668] |
| 1960 | CC(NC(=O)c1cccc(Cl)c1Cl)c1[nH]nc(-c2ccc(F)cc2)c1-c1ccncc1 (centres unmarked) [Example B-0681] |
| 3700 | O=S(=O)(NC(Cc1ccccc1)c1[nH]nc(-c2ccc(F)cc2)c1-c1ccncc1)c1ccccc1F (centres unmarked) [Example B-0714] |
| 300 | CC(NC(=O)C1CCCN1)c1[nH]nc(-c2ccc(F)cc2)c1-c1ccncc1 (centres unmarked) [Example B-0604] |
| 260 | N#Cc1ccccc1S(=O)(=O)NCCc1[nH]nc(-c2ccc(F)cc2)c1-c1ccncc1 [Example B-1078] |
| 38 | O=C(NCCc1[nH]nc(-c2ccc(F)cc2)c1-c1ccncc1)c1c(F)cccc1C(F)(F)F [Example B-1137] |

Same assay, conditions: in vitro P38-alpha kinase; read-out: P38 alpha kinase IC50

| IC50 [nM] | Compound |
| --- | --- |
| 90 | CC(C)OC(=O)N1CCC(c2[nH]nc(-c3ccc(F)cc3)c2-c2ccncc2)CC1 [Example B-1425] |
| 180 | COC(=O)CCNC(=O)Cn1nc(-c2ccc(F)cc2)c(-c2ccncc2)c1C [Example B-2301] |
| 420 | O=C(NCCCc1[nH]nc(-c2ccc(F)cc2)c1-c1ccncc1)c1ccc(F)c(C(F)(F)F)c1 [Example B-1341] |
| < 100 | O=S(=O)(NCCCc1[nH]nc(-c2ccc(F)cc2)c1-c1ccncc1)c1cccc(Cl)c1 [Example B-1267] |
| < 100 | COc1cccc(C(=O)N2CCC(c3[nH]nc(-c4ccc(F)cc4)c3-c3ccncc3)CC2)c1 [Example B-1369] |
| 14900 | Cc1c(-c2ccncc2)c(-c2ccc(F)cc2)nn1CC(=O)NCC(c1ccccc1)c1ccccc1 [Example B-2277] |
| < 100 | Cc1cccc(C)c1NC(=O)N1CCC(c2[nH]nc(-c3ccc(F)cc3)c2-c2ccncc2)CC1 [Example B-1380] |
| 4540 | Cc1noc(C)c1C(=O)N1CCC(c2[nH]nc(-c3ccc(F)cc3)c2-c2ccncc2)CC1 [Example B-1403] |
| 1950 | O=S(=O)(c1ccccc1)c1ccc(S(=O)(=O)N2CCC(c3[nH]nc(-c4ccc(F)cc4)c3-c3ccncc3)CC2)s1 [Example B-1441] |
| 13 | Cc1ccc(C(=O)NCCCc2[nH]nc(-c3ccc(F)cc3)c2-c2ccncc2)cc1 [Example B-1323] |
| 14 | Cc1cccc(C(=O)NCCCc2[nH]nc(-c3ccc(F)cc3)c2-c2ccncc2)c1 [Example B-1344] |
| 1680 | Cc1c(-c2ccncc2)c(-c2ccc(F)cc2)nn1CC(=O)NCCN(C)C [Example B-2294] |
| 270 | O=S(=O)(NCCCc1[nH]nc(-c2ccc(F)cc2)c1-c1ccncc1)c1cccc2ccccc12 [Example B-1246] |
| 120 | O=C(NCCCc1[nH]nc(-c2ccc(F)cc2)c1-c1ccncc1)c1ccc(Cl)cc1 [Example B-1322] |
| 39 | O=S(=O)(NCCCc1[nH]nc(-c2ccc(F)cc2)c1-c1ccncc1)c1ccc2ccccc2c1 [Example B-1280] |
| 400 | N#Cc1ccccc1S(=O)(=O)N1CCC(c2[nH]nc(-c3ccc(F)cc3)c2-c2ccncc2)CC1 [Example B-1461] |
| 2290 | Cc1c(-c2ccncc2)c(-c2ccc(F)cc2)nn1CC(=O)NCc1cccc2ccccc12 [Example B-2285] |
| 65 | O=C(NCCCc1[nH]nc(-c2ccc(F)cc2)c1-c1ccncc1)c1ccccc1Cl [Example B-1343] |
| < 100 | O=C(c1ccno1)N1CCC(c2[nH]nc(-c3ccc(F)cc3)c2-c2ccncc2)CC1 [Example B-1367] |

Same assay, conditions: read-out: P38 alpha kinase IC50

| IC50 [nM] | Compound |
| --- | --- |
| 77 | COCC(=O)N[C@H]1CC[C@@H](C2=NN=C(c3ccc(Cl)cc3)C2c2ccncc2)CC1 (stereo partly drawn) [Example C-96, 5-cis-[4-N-(METHOXYACETYL)AMINOCYCLOHEXYL]-4-(4-PYRIDYL)-3-(4-CHLOROPHENYL)PYRAZOLE] |
| 83 | N[C@H]1CC[C@@H](c2[nH]nc(-c3ccc(C(F)(F)F)cc3)c2-c2ccncc2)CC1 [Example C-101, 5-cis-(4-AMINOCYCLOHEXYL)-4-(4-PYRIDYL)-3-[4-(TRIFLUOROMETHYL)PHENYL]PYRAZOLE] |
